This assay has as its target BoGT6a (Bacteroides ovatus, UniProt A0ABU3IMV7). As to the kind of experiment: ITC, […]°C, HEPES pH […], no metal. Format: binding. For orientation: Isothermal titration calorimetry measures the heat released or taken up as one component is titrated into another.

A word on the Kd: it is a measure of binding affinity in units of concentration. A high value points to a looser complex. Take `CC(=O)N[C@H]1[C@@H](OP(=O)(O)OP(=O)(O)OC[C@H]2O[C@@H](n3ccc(=O)[nH]c3=O)[C@H](O)[C@@H]2O)O[C@H](CO)[C@H](O)[C@@H]1O` [UDP-GalNAc]: the affinity, expressed as Kd, was 59 µM.

(Values after paper PMC3516806 (Scientific Reports, 2012).)
